Data reported in ChEMBL document CHEMBL3745645, “Synthesis, in vitro antitumor activity, dihydrofolate reductase inhibition, DNA intercalation and structure-activity relationship studies of 1,3,5-triazine analogues” (Bioorg Med Chem Lett, 2016).
Active and inactive are the calls of the source. The rule behind the calls is not given here.

Experiments:
Format in all cases: functional
[1] = Cytotoxicity against human HCT116 cells at 10 uM after 48 hrs by SRB assay; conditions: HCT-116, 48 h, read-out: GI
U-251 = assay: Cytotoxicity against human U251 cells at 10 uM after 48 hrs by SRB assay; conditions: U-251, 48 h, read-out: GI
[2] = Cytotoxicity against human Caki1 cells at 10 uM after 48 hrs by SRB assay; conditions: CAKI-1, 48 h, read-out: GI
[3] = Cytotoxicity against human SF539 cells at 10 uM after 48 hrs by SRB assay; conditions: SF-539, 48 h, read-out: GI
[4] = Cytotoxicity against human SF268 cells at 10 uM after 48 hrs by SRB assay; conditions: SF-268, 48 h, read-out: GI
[5] = Cytotoxicity against human UACC257 cells at 10 uM after 48 hrs by SRB assay; conditions: UACC-257, 48 h, read-out: GI
[6] = Cytotoxicity against human COLO205 cells at 10 uM after 48 hrs by SRB assay; conditions: COLO 205, 48 h, read-out: GI
CCRF-CEM = assay: Cytotoxicity against human CCRF-CEM cells at 10 uM after 48 hrs by SRB assay
NCI-H322M = assay: Cytotoxicity against human NCI-H322M cells at 10 uM after 48 hrs by SRB assay; conditions: read-out: GI
NCI-H522 = assay: Cytotoxicity against human NCI-H522 cells at 10 uM after 48 hrs by SRB assay; conditions: NCI-H522, 48 h, read-out: GI
HT-29 = assay: Cytotoxicity against human HT-29 cells at 10 uM after 48 hrs by SRB assay; conditions: HT-29, 48 h, read-out: GI
[7] = Cytotoxicity against human HOP62 cells at 10 uM after 48 hrs by SRB assay; conditions: HOP-62, 48 h, read-out: GI
Hs-578T = assay: Cytotoxicity against human Hs 578T cells at 10 uM after 48 hrs by SRB assay
[8] = Cytotoxicity against human HCC2998 cells at 10 uM after 48 hrs by SRB assay; conditions: HCC 2998, 48 h, read-out: GI
[9] = Cytotoxicity against human SNB19 cells at 10 uM after 48 hrs by SRB assay; conditions: SNB-19, 48 h, read-out: GI
RPMI-8226 = assay: Cytotoxicity against human RPMI8226 cells at 10 uM after 48 hrs by SRB assay
NCI/ADR-RES = assay: Cytotoxicity against human NCI-ADR-RES cells at 10 uM after 48 hrs by SRB assay
[10] = Cytotoxicity against human HOP92 cells at 10 uM after 48 hrs by SRB assay; conditions: HOP-92, 48 h, read-out: GI
[11] = Cytotoxicity against human OVCAR3 cells at 10 uM after 48 hrs by SRB assay; conditions: OVCAR-3, 48 h, read-out: GI
[12] = Cytotoxicity against human BT549 cells at 10 uM after 48 hrs by SRB assay; conditions: BT-549, 48 h, read-out: GI
SK-MEL-28 = assay: Cytotoxicity against human SK-MEL-28 cells at 10 uM after 48 hrs by SRB assay
K562 = assay: Cytotoxicity against human K562 cells at 10 uM after 48 hrs by SRB assay
ACHN = assay: Cytotoxicity against human ACHN cells at 10 uM after 48 hrs by SRB assay; conditions: read-out: GI
A498 = assay: Cytotoxicity against human A498 cells at 10 uM after 48 hrs by SRB assay; conditions: A498, 48 h, read-out: GI
786-0 = assay: Cytotoxicity against human 786-0 cells at 10 uM after 48 hrs by SRB assay; conditions: 786-0, 48 h, read-out: GI
[13] = Cytotoxicity against human OVCAR4 cells at 10 uM after 48 hrs by SRB assay; conditions: OVCAR-4, 48 h, read-out: GI
MCF7 = assay: Cytotoxicity against human MCF7 cells at 10 uM after 48 hrs by SRB assay; conditions: MCF7, 48 h, read-out: GI
HL-60(TB) = assay: Cytotoxicity against human HL-60(TB) cells at 10 uM after 48 hrs by SRB assay
A549 = assay: Cytotoxicity against human A549 cells at 10 uM after 48 hrs by SRB assay; conditions: A549, 48 h, read-out: GI
MDA-MB-435 = assay: Cytotoxicity against human MDA-MB-435 cells at 10 uM after 48 hrs by SRB assay; conditions: MDA-MB-435, 48 h, read-out: GI
SR = assay: Cytotoxicity against human SR cells at 10 uM after 48 hrs by SRB assay
[14] = Cytotoxicity against human SF295 cells at 10 uM after 48 hrs by SRB assay; conditions: SF-295, 48 h, read-out: GI
NCI-H226 = assay: Cytotoxicity against human NCI-H226 cells at 10 uM after 48 hrs by SRB assay; conditions: NCI-H226, 48 h, read-out: GI
Malme-3M = assay: Cytotoxicity against human MALME-3M cells at 10 uM after 48 hrs by SRB assay; conditions: read-out: GI
M14 = assay: Cytotoxicity against human M14 cells at 10 uM after 48 hrs by SRB assay; conditions: M14, 48 h, read-out: GI
MOLT-4 = assay: Cytotoxicity against human MOLT4 cells at 10 uM after 48 hrs by SRB assay
T47D = assay: Cytotoxicity against human T47D cells at 10 uM after 48 hrs by SRB assay; conditions: read-out: GI
SN12C = assay: Cytotoxicity against human SN12C cells at 10 uM after 48 hrs by SRB assay; conditions: read-out: GI
[15] = Cytotoxicity against human DU145 cells at 10 uM after 48 hrs by SRB assay; conditions: DU-145, 48 h, read-out: GI
[16] = Cytotoxicity against human LOXIMVI cells at 10 uM after 48 hrs by SRB assay; conditions: LOX IMVI, read-out: GI
[17] = Cytotoxicity against human IGROV1 cells at 10 uM after 48 hrs by SRB assay; conditions: IGROV-1, 48 h, read-out: GI
[18] = Cytotoxicity against human SNB75 cells at 10 uM after 48 hrs by SRB assay; conditions: SNB-75, 48 h, read-out: GI
OVCAR-5 = assay: Cytotoxicity against human OVCAR5 cells at 10 uM after 48 hrs by SRB assay
HCT-15 = assay: Cytotoxicity against human HCT15 cells at 10 uM after 48 hrs by SRB assay
[19] = Cytotoxicity against human RXF393 cells at 10 uM after 48 hrs by SRB assay; conditions: RXF 393, 48 h, read-out: GI
KM12 = assay: Cytotoxicity against human KM12 cells at 10 uM after 48 hrs by SRB assay; conditions: KM12, 48 h, read-out: GI
[20] = Cytotoxicity against human UO31 cells at 10 uM after 48 hrs by SRB assay; conditions: UO-31, 48 h, read-out: GI
SK-MEL-2 = assay: Cytotoxicity against human SK-MEL-2 cells at 10 uM after 48 hrs by SRB assay; conditions: SK-MEL-2, 48 h, read-out: GI
MDA-MB-231 = assay: Cytotoxicity against human MDA-MB-231 cells at 10 uM after 48 hrs by SRB assay; conditions: MDA-MB-231, 48 h, read-out: GI
[21] = Cytotoxicity against human SW620 cells at 10 uM after 48 hrs by SRB assay; conditions: SW-620, 48 h, read-out: GI
MDA-MB-468 = assay: Cytotoxicity against human MDA-MB-468 cells at 10 uM after 48 hrs by SRB assay; conditions: MDA-MB-468, 48 h, read-out: GI
NCI-H460 = assay: Cytotoxicity against human NCI-H460 cells at 10 uM after 48 hrs by SRB assay; conditions: NCI-H460, 48 h, read-out: GI
TK-10 = assay: Cytotoxicity against human TK10 cells at 10 uM after 48 hrs by SRB assay
[22] = Cytotoxicity against human OVCAR8 cells at 10 uM after 48 hrs by SRB assay; conditions: OVCAR-8, 48 h, read-out: GI
SK-MEL-5 = assay: Cytotoxicity against human SK-MEL-5 cells at 10 uM after 48 hrs by SRB assay; conditions: SK-MEL-5, 48 h, read-out: GI
[23] = Cytotoxicity against human SKOV3 cells at 10 uM after 48 hrs by SRB assay; conditions: SK-OV-3, 48 h, read-out: GI

Question: Which results are given for `Cc1nc2cc(Nc3nc(NCCN)nc(Nc4ccc(F)cc4)n3)ccc2n1Cc1ccccc1`?
Answer: inhibition of growth at 10 µM [1]: 39.7%; inhibition of growth at 10 µM (U-251): 22.6%; inhibition of growth at 10 µM [2]: 5.83%; inhibition of growth at 10 µM [3]: 3.98%; inhibition of growth at 10 µM [4]: 28.2%; inhibition of growth at 10 µM [5]: 9.53%; inhibition of growth at 10 µM [6]: 18%; growth inhibition (GI) (CCRF-CEM): Active; inhibition of growth at 10 µM (NCI-H322M): 0.32%; inhibition of growth at 10 µM (NCI-H522): 14.1%; inhibition of growth at 10 µM (HT-29): 64.9%; inhibition of growth at 10 µM [7]: 20.9%; growth inhibition (GI) (Hs-578T): inactive; inhibition of growth at 10 µM [8]: 29.4%; inhibition of growth at 10 µM [9]: 8.37%; growth inhibition (GI) (RPMI-8226): Active; growth inhibition (GI) (NCI/ADR-RES): inactive; inhibition of growth at 10 µM [10]: 51.5%; inhibition of growth at 10 µM [11]: 13.3%; inhibition of growth at 10 µM [12]: 9.96%; growth inhibition (GI) (SK-MEL-28): inactive; growth inhibition (GI) (K562): Active; inhibition of growth at 10 µM (ACHN): 3.22%; inhibition of growth at 10 µM (A498): 32.6%; inhibition of growth at 10 µM (786-0): 17.6%; inhibition of growth at 10 µM [13]: 23%; inhibition of growth at 10 µM (MCF7): 31.2%; growth inhibition (GI) (HL-60(TB)): Active; inhibition of growth at 10 µM (A549): 16.1%; inhibition of growth at 10 µM (MDA-MB-435): 19.6%; growth inhibition (GI) (SR): Active; inhibition of growth at 10 µM [14]: 20.2%; inhibition of growth at 10 µM (NCI-H226): 4.61%; inhibition of growth at 10 µM (Malme-3M): 6.46%; inhibition of growth at 10 µM (M14): 18.4%; growth inhibition (GI) (MOLT-4): Active; inhibition of growth at 10 µM (T47D): 30.9%; inhibition of growth at 10 µM (SN12C): 14.9%; inhibition of growth at 10 µM [15]: 17.8%; inhibition of growth at 10 µM [16]: 41.8%; inhibition of growth at 10 µM [17]: 18.6%; inhibition of growth at 10 µM [18]: 15.8%; growth inhibition (GI) (OVCAR-5): inactive; growth inhibition (GI) (HCT-15): inactive; inhibition of growth at 10 µM [19]: 28%; inhibition of growth at 10 µM (KM12): 29.4%; inhibition of growth at 10 µM [20]: 10.7%; inhibition of growth at 10 µM (SK-MEL-2): 9.54%; inhibition of growth at 10 µM (MDA-MB-231): 39.6%; inhibition of growth at 10 µM [21]: 26.1%; inhibition of growth at 10 µM (MDA-MB-468): 26.8%; inhibition of growth at 10 µM (NCI-H460): 17.4%; growth inhibition (GI) (TK-10): inactive; inhibition of growth at 10 µM [22]: 10.9%; inhibition of growth at 10 µM (SK-MEL-5): 13.4%; inhibition of growth at 10 µM [23]: 4.49%
